Laboratory results taken from US20090176817A1, “Method of Treatment of Diarrhea-Predominant Irritable Bowel Syndrome in a Subject” (priority 2005, published 2009).

Test system: diarrhea-predominant IBS subjects
Assay: Study S241.3.009: weekly diary questions on adequate relief
Assay type: in vivo, human
Settings: 2 mg TID, ITT; for Number of months a subject was a responder during Months 1 to 3: IBS symptoms, One month / Number of months a subject was a responder during Months 1 to 3: IBS symptoms, Three months / Number of months a subject was a responder during Months 1 to 3: IBS symptoms, Two months / Number of months a subject was a responder during Months 1 to 3: IBS symptoms, Zero months / Number of months a subject was a responder during Months 1 to 3: Abdominal pain/discomfort, One month / Number of months a subject was a responder during Months 1 to 3: Abdominal pain/discomfort, Three months / Number of months a subject was a responder during Months 1 to 3: Abdominal pain/discomfort, Two months / Number of months a subject was a responder during Months 1 to 3: Abdominal pain/discomfort, Zero months / Number of months a subject was a responder during Months 1 to 3: Abnormal bowel habits, One month / Number of months a subject was a responder during Months 1 to 3: Abnormal bowel habits, Three months / Number of months a subject was a responder during Months 1 to 3: Abnormal bowel habits, Two months / Number of months a subject was a responder during Months 1 to 3: Abnormal bowel habits, Zero months / Responder rate, adequate relief of IBS symptoms / Responder rate, adequate relief of abdominal pain/discomfort / Responder rate, adequate relief of abnormal bowel habits: monthly LOCF imputation; for Number of subjects who were responders during the 26-week treatment period: Adequate relief of IBS symptoms / Number of subjects who were responders during the 26-week treatment period: Adequate relief of abdominal pain/discomfort / Number of subjects who were responders during the 26-week treatment period: Adequate relief of abnormal bowel habits: observed case
Description: Study S241.3.009 was a Phase III, a double-blind, placebo-controlled, randomized, multinational study to investigate the safety and efficacy of 2 mg TID of cilansetron over 26 weeks in diarrhea-predominant IBS subjects. The study was conducted in 146 multinational study centers. A total of 1307 subjects consented to participate, and 806 subjects were randomized. A total of 792 subjects were analyzed for efficacy and 799 subjects were analyzed for safety. Diagnosis and main criteria for inclusion were IBS subjects satisfying the Rome I criteria (1992); the diarrhea-predominant sub-population of the Rome II criteria; and a minimum abdominal pain/discomfort, stool frequency and consistency determined during the run-in period. Subjects were treated with cilansetron 2 mg tablets given orally TID or matching placebo tablets given orally TID for 26 weeks.
The primary efficacy parameter was the overall response rate for IBS symptoms, based on the weekly question concerning adequate relief of IBS symptoms (abdominal pain/discomfort, abnormal bowel habits) over the 26 weeks period. A responder was a subject who responded “yes” at least 50% of the time during his/her treatment period, with minimum treatment duration of four weeks. The two main secondary efficacy parameters were overall responder rate based on the weekly question on adequate relief of abdominal pain/discomfort and abnormal bowel habits during the 26-week treatment period. The onset of action of cilansetron was also examined using daily diary data (stool frequency, and ratings of urgency and severity) during the initial 8 weeks of trial participation. An additional key secondary efficacy parameter was the number of months (one month equals four weeks) up to six months (24-weeks) that a subject was a responder for IBS symptoms, where a responder was defined as a subject who answered the weekly question with “yes” at least twice for that month. The responder rate for the weekly diary questions on adequate relief at each month and all months, the adequate relief rate, the number of subjects with adequate relief by week, daily diary questions, IBS-QOL scores, and the interruption of activities were also assessed. Safety was evaluated by physical examination, ECG, vital signs, laboratory evaluations, concomitant medications, and AEs.
Studies S24 1.3.OO6, S24 1.3.0 1 1, and S24 1.3.009 used the following efficacy measurements: • The subjects answered the following three questions with “yes” or “no” using a phone diary at the end of each week: • a) During the last week, did you experience adequate relief of your IBS symptoms, such as abdominal pain, abdominal discomfort, abnormal bowel habits? • b) During the last week, did you experience adequate relief of your abdominal pain and/or discomfort? • c) During the last week, did you experience adequate relief of your abnormal bowel habits? • The subjects rated the following symptoms using the phone diary at the end of each day: • abdominal pain/discomfort (five-point scale); • stool consistency (seven-point Bristol Stool Scale); • stool frequency (number of bowel movements each day); • urgency (five-point scale); • straining (yes or no); • feeling of incomplete defecation (yes or no); • bloating or feeling of abdominal distension (five-point scale). • In Studies S241 A006 and S241.3.009, subjects completed the IBS-QOL Survey at Baseline (Day 1) and at the end of treatment. In Study S24 1.3.0 1 1, subjects completed the IBS-QOL Survey at Baseline (Day 1), at the end of the three-month treatment period, and at the end of rerandomized treatment.
In all three pivotal efficacy studies, the primary and main secondary efficacy parameters were based on the weekly diary questions on adequate relief and included the following: • 1. Number of months (one month equals four weeks) that a subject was a responder for the weekly diary questions on adequate relief. […]

[1] = Duration of IBS: >24 months to ≦48 months
[2] = Duration of IBS: >48 months to ≦120 months

Cc1nccn1C[C@H]1CCc2c(c3cccc4c3n2CCC4)C1=O [Cilansetron, (R)-(−)-4,5,6,8,9,10-hexahydro-10-[(2-methyl-1H-imidazol-1-yl)methyl]-11H-pyrido-[3,2,1-jk]-carbazol-11-one]
Number of months a subject was a responder during Months 1 to 3: IBS symptoms, One month [1]: 9 (9) n (%) | Number of months a subject was a responder during Months 1 to 3: IBS symptoms, Three months [1]: 35 (36) n (%) | Number of months a subject was a responder during Months 1 to 3: IBS symptoms, Two months [1]: 21 (22) n (%) | Number of months a subject was a responder during Months 1 to 3: IBS symptoms, Zero months [1]: 31 (32) n (%) | Number of subjects who were responders during the 26-week treatment period: Adequate relief of IBS symptoms [1]: 56 (58) n (%) | Number of subjects who were responders during the 26-week treatment period: Adequate relief of abdominal pain/discomfort [1]: 60 (63) n (%) | Number of subjects who were responders during the 26-week treatment period: Adequate relief of abnormal bowel habits [1]: 63 (66) n (%) | Number of months a subject was a responder during Months 1 to 3: Abdominal pain/discomfort, One month [2]: 21 (16) n (%) | Number of months a subject was a responder during Months 1 to 3: Abdominal pain/discomfort, Three months [2]: 45 (34) n (%) | Number of months a subject was a responder during Months 1 to 3: Abdominal pain/discomfort, Two months [2]: 23 (18) n (%) | Number of months a subject was a responder during Months 1 to 3: Abdominal pain/discomfort, Zero months [2]: 42 (32) n (%) | Number of months a subject was a responder during Months 1 to 3: Abnormal bowel habits, One month [2]: 19 (15) n (%) | Number of months a subject was a responder during Months 1 to 3: Abnormal bowel habits, Three months [2]: 51 (39) n (%) | Number of months a subject was a responder during Months 1 to 3: Abnormal bowel habits, Two months [2]: 26 (20) n (%) | Number of months a subject was a responder during Months 1 to 3: Abnormal bowel habits, Zero months [2]: 35 (27) n (%) | Number of months a subject was a responder during Months 1 to 3: IBS symptoms, One month [2]: 16 (12) n (%) | Number of months a subject was a responder during Months 1 to 3: IBS symptoms, Three months [2]: 46 (35) n (%) | Number of months a subject was a responder during Months 1 to 3: IBS symptoms, Two months [2]: 28 (21) n (%) | Number of months a subject was a responder during Months 1 to 3: IBS symptoms, Zero months [2]: 41 (31) n (%) | Number of subjects who were responders during the 26-week treatment period: Adequate relief of IBS symptoms [2]: 72 (55) n (%) | Number of subjects who were responders during the 26-week treatment period: Adequate relief of abdominal pain/discomfort [2]: 68 (52) n (%) | Number of subjects who were responders during the 26-week treatment period: Adequate relief of abnormal bowel habits [2]: 79 (60) n (%) | Number of months a subject was a responder during Months 1 to 3: Abdominal pain/discomfort, One month (Duration of IBS: >120 months): 15 (21) n (%) | Number of months a subject was a responder during Months 1 to 3: Abdominal pain/discomfort, Three months (Duration of IBS: >120 months): 22 (31) n (%) | Number of months a subject was a responder during Months 1 to 3: Abdominal pain/discomfort, Two months (Duration of IBS: >120 months): 15 (21) n (%) | Number of months a subject was a responder during Months 1 to 3: Abdominal pain/discomfort, Zero months (Duration of IBS: >120 months): 20 (28) n (%) | Number of months a subject was a responder during Months 1 to 3: Abnormal bowel habits, One month (Duration of IBS: >120 months): 10 (14) n (%) | Number of months a subject was a responder during Months 1 to 3: Abnormal bowel habits, Three months (Duration of IBS: >120 months): 27 (38) n (%) | Number of months a subject was a responder during Months 1 to 3: Abnormal bowel habits, Two months (Duration of IBS: >120 months): 14 (19) n (%) | Number of months a subject was a responder during Months 1 to 3: Abnormal bowel habits, Zero months (Duration of IBS: >120 months): 21 (29) n (%) | Number of months a subject was a responder during Months 1 to 3: IBS symptoms, One month (Duration of IBS: >120 months): 14 (19) n (%) | Number of months a subject was a responder during Months 1 to 3: IBS symptoms, Three months (Duration of IBS: >120 months): 23 (32) n (%) | Number of months a subject was a responder during Months 1 to 3: IBS symptoms, Two months (Duration of IBS: >120 months): 15 (21) n (%) | Number of months a subject was a responder during Months 1 to 3: IBS symptoms, Zero months (Duration of IBS: >120 months): 20 (28) n (%) | Number of subjects who were responders during the 26-week treatment period: Adequate relief of IBS symptoms (Duration of IBS: >120 months): 40 (56) n (%) | Number of subjects who were responders during the 26-week treatment period: Adequate relief of abdominal pain/discomfort (Duration of IBS: >120 months): 41 (57) n (%) | Number of subjects who were responders during the 26-week treatment period: Adequate relief of abnormal bowel habits (Duration of IBS: >120 months): 42 (58) n (%) | Number of months a subject was a responder during Months 1 to 3: Abdominal pain/discomfort, One month (Duration of IBS: ≦24 months): 11 (11) n (%) | Number of months a subject was a responder during Months 1 to 3: Abdominal pain/discomfort, Three months (Duration of IBS: ≦24 months): 55 (57) n (%) | Number of months a subject was a responder during Months 1 to 3: Abdominal pain/discomfort, Two months (Duration of IBS: ≦24 months): 13 (14) n (%) | Number of months a subject was a responder during Months 1 to 3: Abdominal pain/discomfort, Zero months (Duration of IBS: ≦24 months): 17 (18) n (%) | Number of months a subject was a responder during Months 1 to 3: Abnormal bowel habits, One month (Duration of IBS: ≦24 months): 9 (9) n (%) | Number of months a subject was a responder during Months 1 to 3: Abnormal bowel habits, Three months (Duration of IBS: ≦24 months): 51 (53) n (%) | Number of months a subject was a responder during Months 1 to 3: Abnormal bowel habits, Two months (Duration of IBS: ≦24 months): 18 (19) n (%) | Number of months a subject was a responder during Months 1 to 3: Abnormal bowel habits, Zero months (Duration of IBS: ≦24 months): 18 (19) n (%) | Number of months a subject was a responder during Months 1 to 3: IBS symptoms, One month (Duration of IBS: ≦24 months): 16 (17) n (%) | Number of months a subject was a responder during Months 1 to 3: IBS symptoms, Three months (Duration of IBS: ≦24 months): 46 (48) n (%) | Number of months a subject was a responder during Months 1 to 3: IBS symptoms, Two months (Duration of IBS: ≦24 months): 16 (17) n (%) | Number of months a subject was a responder during Months 1 to 3: IBS symptoms, Zero months (Duration of IBS: ≦24 months): 18 (19) n (%) | Number of subjects who were responders during the 26-week treatment period: Adequate relief of IBS symptoms (Duration of IBS: ≦24 months): 66 (69) n (%) | Number of subjects who were responders during the 26-week treatment period: Adequate relief of abdominal pain/discomfort (Duration of IBS: ≦24 months): 70 (73) n (%) | Number of subjects who were responders during the 26-week treatment period: Adequate relief of abnormal bowel habits (Duration of IBS: ≦24 months): 69 (72) n (%) | Responder rate, adequate relief of IBS symptoms (Each month of Months 1 to 3): 150 (38) n (%) | Responder rate, adequate relief of abdominal pain/discomfort (Each month of Months 1 to 3): 159 (40) n (%) | Responder rate, adequate relief of abnormal bowel habits (Each month of Months 1 to 3): 165 (42) n (%) | Responder rate, adequate relief of IBS symptoms (Each month of Months 1 to 6): 121 (31) n (%) | Responder rate, adequate relief of abdominal pain/discomfort (Each month of Months 1 to 6): 133 (34) n (%) | Responder rate, adequate relief of abnormal bowel habits (Each month of Months 1 to 6): 136 (34) n (%) | Responder rate, adequate relief of IBS symptoms (Each month of Months 4 to 6): 193 (49) n (%) | Responder rate, adequate relief of abdominal pain/discomfort (Each month of Months 4 to 6): 202 (51) n (%)
